Experimental data: patent publication US6440999B1, “Intimal thickening inhibitory agent” (Chugai Seiyaku Kabushiki Kaisha, priority 1995, dated 2002)

Experiments:
[1] = test system: A7r5 cells derived from the aorta of a rat; assay: Inhibition of serum- or PDGF-stimulated proliferation of vascular smooth muscle cells, [3H]-thymidine uptake; format: cell-based; conditions: uptake in 5 hours, n = 3, mean ± SD; for Count by Liquid Scintillation Counter, FBS Stimulation ([3H]-thymidine uptake): 2% FBS, control 42789 ± 1063; for Count by Liquid Scintillation Counter, PDGF Stimulation ([3H]-thymidine uptake): PDGF-BB 4 ng/ml, control 24517 ± 2370
Description: In order to assess the inhibitory effect of a compound of the present invention on serum- or PDGF-stimulated proliferation of vascular smooth muscle cells in vitro, the compound obtained in Example 36 was tested using A7r5 cells derived from the aorta of a rat (ATCC-CRL-1444). Further, the effect was compared with that of α-tocopherol which was reported to have an inhibitory effect on proliferation of vascular smooth muscle cells (see J. Biol. Chem., 266, pp. 6188-6194 (1991)).
Using DMEM medium containing 10% FBS, the cells were placed on 96-well microtiter plates with 5×10^3 cells/0.2 ml/well and then incubated. The medium was exchanged for 2% FBS-containing DMEM medium on the third day and then for 0.2% FBS-containing DMEM medium on the fourth day from the start of the incubation. After 48-hour incubation in the 0.2% FBS-containing DMEM medium, the medium was removed, 0.2 ml of DMEM medium and the test compound were added, and the cells were stimulated with serum (2% FBS) or PDGF (PDGF-BB: human origin, available from Becton Dickinson Labware) (4 ng/ml) to proliferate. The test compound was added to the wells in the form of a solution or suspension in ethanol in amount of 1 μl well to final compound concentrations indicated in Table 2 below and the resultant ethanol concentration of 0.5% in each well. Eight hours after the stimulation, hydroxyurea was added to a final concentration of 1.5 mM to synchronize the cell cycle strictly. After additional 14-hour incubation, the medium containing hydroxyurea was removed and the cells were washed, and DMEM medium, the test compound and the proliferation stimulator were added thereto again. Further, [^3H]-thymidine (1 μCi/well; […]; available from NEN Research) was added. The [^3H]-thymidine uptake in 5 hours was measured as an indication of cell proliferation.

[2] = test system: A7r5 cells derived from the aorta of a rat; assay: Inhibition of serum-stimulated proliferation of vascular smooth muscle cells, acid phosphatase activity; format: cell-based; conditions: 48 hours after 2% FBS stimulation, n = 3, mean ± SD; for Acid Phosphatase Activity Absorbance (OD405): control 0.867 ± 0.089; for activity at 10 µM / activity at 100 µM / activity at 30 µM: Rattus norvegicus, A7R5, control 100 ± 10
Description: In order to assess the inhibitory effect of the compounds of the present invention on serum-stimulated proliferation of vascular smooth muscle cells in vitro, the compounds of Examples 1, 4, 20, 22, 27, 31, 36, 50, 52, and 58 were tested using A7r5 cells derived from the aorta of a rat (ATCC-CRL-1444).
Using DMEM medium containing 10% FBS, the cells were placed on 96-well microtiter plates with 5×10^3 cells/0.2 ml/ well and then incubated. The medium was exchanged for 2% FBS-containing DMEM medium on the third day and then for 0.2% FBS-containing DMEM medium on the fourth day from the start of the incubation. After 24-hour incubation in the 0.2% FBS-containing DMEM medium, the test compound was added. Each of the test compounds were added to the wells in the form of a solution or suspension in ethanol in an amount of 1 μl/well to final compound concentrations indicated in Table 3 below and the resultant ethanol concentration of 0.5% in each well. After additional 24-hour incubation, the medium was removed, and 0.2 ml of DMEM medium and the test compound were added thereto again, and the cells were stimulated by serum (2% FBS). Forty-eight hours after the stimulation, the acid phosphatase activity in the wells was measured by means of a kit (Abacus Cell Proliferation Kit, available from Clontech Lab. Inc. CA, U.S.A.) and evaluated as an indication of cell proliferation.

[3] = test system: rabbit balloon injury models; assay: In vivo effect in intimal thickening model (2), rabbit balloon injury; conditions: cholesterol-fed rabbits, 15-week-old, 200 mg/kg oral once a day, four weeks after balloon treatment, mean ± SD
Description: In order to assess the inhibitory effect of the compound of the present invention on intimal thickening in vivo, the compound of Example 36 was tested using rabbit balloon injury models that were different from those used in Test Example 4 in week-age. Further, the effect was compared with that of Probucol which was reported to have an inhibitory effect on intimal thickening in balloon injury models (see Proc. Natl. Acad. Sci., U.S.A., 89, pp 11312-11316 (1992)).
Cholesterol-fed rabbits in groups of seven (JW: CSK male, 15-week-old) were used to prepare rabbit balloon injury models. Briefly, rabbits were fed with a high cholesterol diet (cholesterol content: 1%) for 2 weeks before balloon treatment. The animals were balloon-treated with a balloon catheter (4 French, available from Baxter) under anesthesia to peel the aortic intima 5 times. The animals were orally administered with the compound which was suspended in a 1% CMC solution (200 mg/kg). On the other hand, control animals were orally administered with a 1% CMC solution without the compound. The administrations were performed once a day from 1 week before the balloon treatment until the day before the dissection for evaluation. In order to evaluate the degree of balloon injury, a balloon-nontreated group (3 animals) was prepared.
After four weeks from the balloon treatment, specimens were taken from the aorta, stained with Elastica van Geison, and analyzed under an optical microscope. The image was processed to measure the thickness and area of the thickened intima. Averages of the thickness and area were obtained for each individual animal. The animals which died after the operation and those having a serum cholesterol level of 3500 mg/dl or higher were excluded from the measurement. The number of animals used for the evaluation was 4 or 5 per group.

| SMILES | Acid Phosphatase Activity Absorbance (OD405) ([2]; 10 μM) | activity at 10 µM ([2]; 10 μM) [%] | Acid Phosphatase Activity Absorbance (OD405) ([2]; 30 μM) | activity at 30 µM ([2]; 30 μM) [%] | also measured |
| --- | --- | --- | --- | --- | --- |
| Cc1c(C)c2c(c(C)c1O)CC[C@@](C)(CCC[C@H](C)CCC[C@H](C)CCCC(C)C)O2 [α-Tocopherol, α-tocopherol, reference compound] |  |  |  |  | Count by Liquid Scintillation Counter, FBS Stimulation ([3H]-thymidine uptake) ([1]; 30 μM): 28058 ± 3912 CPM; Count by Liquid Scintillation Counter, PDGF Stimulation ([3H]-thymidine uptake) ([1]; 30 μM): 12493 ± 2978 CPM; Count by Liquid Scintillation Counter, FBS Stimulation ([3H]-thymidine uptake) ([1]; 100 μM): 25706 ± 4160 CPM; Count by Liquid Scintillation Counter, PDGF Stimulation ([3H]-thymidine uptake) ([1]; 100 μM): 12159 ± 2362 CPM |
| CC(C)(C)c1cc2c(c(C(C)(C)C)c1O)CC1(CCOCC1)O2 [Example 22, 4,6-Di-t-butyl-5-hydroxy-2,3-dihydrobenzofuran-2-spiro-4′-tetrahydropyran] | 0.875 ± 0.013 | 101 ± 1 |  |  | Acid Phosphatase Activity Absorbance (OD405) ([2]; 100 μM): 0.777 ± 0.062; activity at 100 µM ([2]; 100 μM): 90 ± 7% |
| CC(C)(C)c1cc2c(c(C(C)(C)C)c1O)CCO2 [Example 1, 4,6-Di-t-butyl-5-hydroxy-2,3-dihydrobenzofuran] | 0.727 ± 0.032 | 84 ± 4 |  |  | Acid Phosphatase Activity Absorbance (OD405) ([2]; 100 μM): 0.288 ± 0.073; activity at 100 µM ([2]; 100 μM): 33 ± 8% |
| CCCCCC1(CCCCC)Cc2c(cc(C(C)(C)C)c(O)c2C(C)(C)C)S1 [Example 50, 4,6-Di-t-butyl-5-hydroxy-2,2-di-n-pentyl-2,3-dihydrobenzothiophene] | 0.699 ± 0.131 | 81 ± 15 | 0.146 ± 0.026 | 17 ± 3 |  |
| CC1(C)Cc2c(cc(C(C)(C)C)c(O)c2C(C)(C)C)O1 [Example 4, 4,6-Di-t-butyl-5-hydroxy-2,2-dimethyl-2,3-dihydrobenzofuran] | 0.606 ± 0.020 | 70 ± 2 | 0.062 ± 0.026 | 7 ± 3 |  |
| CC1(CO)Cc2c(cc(C(C)(C)C)c(O)c2C(C)(C)C)O1 (stereo not shown) [Example 48, 4,6-Di-t-butyl-5-hydroxy-2-hydroxymethyl-2-methyl-2,3-dihydrobenzofuran] |  |  |  |  | melting point: 126 to 128 °C |
| CC(C)(C)c1cc2c(c(C(C)(C)C)c1O)CC1(CCCCC1)S2 [Example 58, 4,6-Di-t-butyl-5-hydroxy-2,3-dihydrobenzothiophene-2-spiro-1′-cyclohexane] | 0.417 ± 0.125 | 48 ± 14 | 0.045 ± 0.006 | 5 ± 1 |  |
| CC(C)(C)c1cc2occc2c(C(C)(C)C)c1O [Example 27, 4,6-Di-t-butyl-5-hydroxybenzofuran] | 0.553 ± 0.033 | 64 ± 4 | 0.225 ± 0.064 | 26 ± 7 |  |
| CC(C)(C)c1cc2c(c(C(C)(C)C)c1O)CC1(CCCCCC1)O2 [Example 20, 4,6-Di-t-butyl-5-hydroxy-2,3-dihydrobenzofuran-2-spiro-1′-cycloheptane] | 0.472 ± 0.031 | 54 ± 4 | 0.105 ± 0.027 | 12 ± 3 |  |
| CCCOc1cc(C(C)(C)C)c(O)c(C(C)(C)C)c1C [Example 31, 2,6-Di-t-butyl-3-methyl-4-propyloxyphenol] | 0.756 ± 0.025 | 87 ± 3 |  |  | Acid Phosphatase Activity Absorbance (OD405) ([2]; 100 μM): 0.600 ± 0.102; activity at 100 µM ([2]; 100 μM): 69 ± 12% |
| CC1(C)Cc2c(cc(C(C)(C)C)c(O)c2C(C)(C)C)S1 [Example 52, 4,6-Di-t-butyl-5-hydroxy-2,2-dimethyl-2,3-dihydrobenzothiophene] | 0.690 ± 0.071 | 80 ± 8 | 0.043 ± 0.008 | 5 ± 1 |  |
| CC(C)(Sc1cc(C(C)(C)C)c(O)c(C(C)(C)C)c1)Sc1cc(C(C)(C)C)c(O)c(C(C)(C)C)c1 [Probucol, reference compound] |  |  |  |  | Area of Intima ([3]; control 1.32 ± 0.22): 0.97 ± 0.28 mm²; Thickness of Intima ([3]; control 119 ± 19): 92 ± 17 μm |
